In a compilation of properties of binary mixtures (doi:10.1021/acs.jpcb.5b11900):

Assay: xn = mol fraction of the nth substance listed
Conditions: 101 kPa

Compound: CC[N+](CC)(CC)CC.O=[N+]([O-])[O-] + CC[NH3+].O=[N+]([O-])[O-]
- electrical conductivity (293.15 K, x1 = 0.0501): 1.56 S/m
- viscosity (293.15 K, x1 = 0.0501): 50.7 mPa·s
- electrical conductivity (293.15 K, x1 = 0.1): 1.27 S/m
- viscosity (293.15 K, x1 = 0.1): 60.1 mPa·s
- electrical conductivity (293.15 K, x1 = 0.2001): 0.797 S/m
- viscosity (293.15 K, x1 = 0.2001): 91.6 mPa·s
- electrical conductivity (293.15 K, x1 = 0.2567): 0.623 S/m
- viscosity (293.15 K, x1 = 0.2567): 122 mPa·s
- electrical conductivity (293.15 K, x1 = 0.2995): 0.392 S/m
- viscosity (293.15 K, x1 = 0.2995): 144 mPa·s
- electrical conductivity (293.15 K, x1 = 0.35): 0.359 S/m
- viscosity (293.15 K, x1 = 0.35): 211 mPa·s
- electrical conductivity (298.15 K, x1 = 0.0501): 1.83 S/m
- viscosity (298.15 K, x1 = 0.0501): 42.2 mPa·s
- electrical conductivity (298.15 K, x1 = 0.1): 1.5 S/m
- viscosity (298.15 K, x1 = 0.1): 49.6 mPa·s
- electrical conductivity (298.15 K, x1 = 0.15): 1.21 S/m
- viscosity (298.15 K, x1 = 0.15): 60.4 mPa·s
- electrical conductivity (298.15 K, x1 = 0.2001): 0.96 S/m
- viscosity (298.15 K, x1 = 0.2001): 74 mPa·s
- electrical conductivity (298.15 K, x1 = 0.2567): 0.762 S/m
- viscosity (298.15 K, x1 = 0.2567): 96.9 mPa·s
- viscosity (298.15 K, x1 = 0.2995): 114 mPa·s
- electrical conductivity (298.15 K, x1 = 0.35): 0.462 S/m
- viscosity (298.15 K, x1 = 0.35): 167 mPa·s
- electrical conductivity (303.15 K, x1 = 0.1): 1.76 S/m
- viscosity (303.15 K, x1 = 0.1): 41.4 mPa·s
- electrical conductivity (303.15 K, x1 = 0.2001): 1.14 S/m
- viscosity (303.15 K, x1 = 0.2001): 60.7 mPa·s
- electrical conductivity (303.15 K, x1 = 0.2567): 0.912 S/m
- viscosity (303.15 K, x1 = 0.2567): 78.3 mPa·s
- electrical conductivity (303.15 K, x1 = 0.2995): 0.594 S/m
- viscosity (303.15 K, x1 = 0.2995): 91.3 mPa·s
- electrical conductivity (308.15 K, x1 = 0.0501): 2.44 S/m
- viscosity (308.15 K, x1 = 0.0501): 30.3 mPa·s
- electrical conductivity (308.15 K, x1 = 0.1): 2.03 S/m
- viscosity (308.15 K, x1 = 0.1): 35.5 mPa·s
- electrical conductivity (308.15 K, x1 = 0.15): 1.65 S/m
- viscosity (308.15 K, x1 = 0.15): 41.9 mPa·s
- electrical conductivity (308.15 K, x1 = 0.2567): 1.08 S/m
- viscosity (308.15 K, x1 = 0.2567): 64.1 mPa·s
- electrical conductivity (308.15 K, x1 = 0.2995): 0.715 S/m
- viscosity (308.15 K, x1 = 0.2995): 74.2 mPa·s
- electrical conductivity (308.15 K, x1 = 0.35): 0.671 S/m
- viscosity (308.15 K, x1 = 0.35): 104 mPa·s
- electrical conductivity (313.15 K, x1 = 0.0501): 2.78 S/m
- viscosity (313.15 K, x1 = 0.0501): 26 mPa·s
- electrical conductivity (313.15 K, x1 = 0.15): 1.91 S/m
- viscosity (313.15 K, x1 = 0.15): 35.6 mPa·s
- electrical conductivity (313.15 K, x1 = 0.2001): 1.56 S/m
- viscosity (313.15 K, x1 = 0.2001): 42.4 mPa·s
- electrical conductivity (313.15 K, x1 = 0.2567): 1.26 S/m
- viscosity (313.15 K, x1 = 0.2567): 53.4 mPa·s
- electrical conductivity (313.15 K, x1 = 0.2995): 0.848 S/m
- viscosity (313.15 K, x1 = 0.2995): 61.3 mPa·s
- electrical conductivity (313.15 K, x1 = 0.35): 0.804 S/m
- viscosity (313.15 K, x1 = 0.35): 85.4 mPa·s
- electrical conductivity (318.15 K, x1 = 0.0501): 3.14 S/m
- viscosity (318.15 K, x1 = 0.0501): 22.5 mPa·s
- electrical conductivity (318.15 K, x1 = 0.1): 2.65 S/m
- viscosity (318.15 K, x1 = 0.1): 26.1 mPa·s
- electrical conductivity (318.15 K, x1 = 0.15): 2.17 S/m
- viscosity (318.15 K, x1 = 0.15): 30.4 mPa·s
- electrical conductivity (318.15 K, x1 = 0.2001): 1.79 S/m
- viscosity (318.15 K, x1 = 0.2001): 35.9 mPa·s
- electrical conductivity (318.15 K, x1 = 0.2567): 1.46 S/m
- viscosity (318.15 K, x1 = 0.2567): 44.7 mPa·s
- electrical conductivity (318.15 K, x1 = 0.35): 0.948 S/m
- viscosity (318.15 K, x1 = 0.35): 69.4 mPa·s
- electrical conductivity (323.15 K, x1 = 0.0501): 3.52 S/m
- viscosity (323.15 K, x1 = 0.0501): 19.7 mPa·s
- electrical conductivity (323.15 K, x1 = 0.1): 2.99 S/m
- viscosity (323.15 K, x1 = 0.1): 22.7 mPa·s
- electrical conductivity (323.15 K, x1 = 0.2001): 2.04 S/m
- viscosity (323.15 K, x1 = 0.2001): 30.7 mPa·s
- electrical conductivity (323.15 K, x1 = 0.2567): 1.68 S/m
- viscosity (323.15 K, x1 = 0.2567): 37.9 mPa·s
- electrical conductivity (323.15 K, x1 = 0.2995): 1.22 S/m
- viscosity (323.15 K, x1 = 0.2995): 42.8 mPa·s
- electrical conductivity (323.15 K, x1 = 0.35): 1.11 S/m
- viscosity (323.15 K, x1 = 0.35): 57.6 mPa·s
- viscosity (328.15 K, x1 = 0.0501): 17.3 mPa·s
- viscosity (328.15 K, x1 = 0.1): 19.9 mPa·s
- viscosity (328.15 K, x1 = 0.15): 22.8 mPa·s
- viscosity (328.15 K, x1 = 0.2995): 36.4 mPa·s
- viscosity (333.15 K, x1 = 0.0501): 15.3 mPa·s
- viscosity (333.15 K, x1 = 0.1): 17.5 mPa·s
- viscosity (333.15 K, x1 = 0.2001): 23.2 mPa·s
- viscosity (333.15 K, x1 = 0.2567): 28.1 mPa·s
- viscosity (333.15 K, x1 = 0.2995): 31.3 mPa·s
- viscosity (333.15 K, x1 = 0.35): 41.5 mPa·s
- viscosity (338.15 K, x1 = 0.0501): 13.7 mPa·s
- viscosity (338.15 K, x1 = 0.1): 15.5 mPa·s
- viscosity (338.15 K, x1 = 0.15): 17.7 mPa·s
- viscosity (338.15 K, x1 = 0.2001): 20.3 mPa·s
- viscosity (338.15 K, x1 = 0.2567): 24.3 mPa·s
- viscosity (338.15 K, x1 = 0.2995): 27 mPa·s
- viscosity (338.15 K, x1 = 0.35): 35.1 mPa·s
- viscosity (343.15 K, x1 = 0.0501): 12.3 mPa·s
- viscosity (343.15 K, x1 = 0.1): 13.6 mPa·s
- viscosity (343.15 K, x1 = 0.2001): 18 mPa·s
- viscosity (343.15 K, x1 = 0.2567): 21.4 mPa·s
- viscosity (343.15 K, x1 = 0.2995): 23.6 mPa·s
- viscosity (343.15 K, x1 = 0.35): 30.2 mPa·s
- viscosity (348.15 K, x1 = 0.0501): 11.1 mPa·s
- viscosity (348.15 K, x1 = 0.1): 12.2 mPa·s
- viscosity (348.15 K, x1 = 0.15): 14.1 mPa·s
- viscosity (348.15 K, x1 = 0.2567): 18.9 mPa·s
- viscosity (348.15 K, x1 = 0.2995): 20.7 mPa·s
- viscosity (353.15 K, x1 = 0.0501): 10 mPa·s
- viscosity (353.15 K, x1 = 0.15): 12.7 mPa·s
- viscosity (353.15 K, x1 = 0.2001): 14.4 mPa·s
- viscosity (353.15 K, x1 = 0.2567): 16.9 mPa·s
- viscosity (353.15 K, x1 = 0.2995): 18.4 mPa·s
